Results as given in patent US4556673A, “Use of phthalyltaurine sulfonamide derivatives in treating epilepsy and arrythmia” (priority 1980, dated 1985).
Where two headings read alike, the source gives them in different places.

Experiments:
[1] = test system: bacteria; conditions: cited from earlier work
[2] = test system: convulsions induced by strychnine; test: Strychnine convulsant threshold test (STR); type: in vivo, mice; conditions: Mus musculus, ip, read-out: Anticonvulsive activity ED50, STR
Description: (§1) The anticonvulsive effect of the compounds was studied on three types of experimental epilepsy. Convulsions were induced in mice by subcutaneous administration of pentylene tetrazole or strychnine, or by electrical stimulation with a 50 mA current (E. A. Swinyard, Assay of antiepileptic drug activity in experimental animals: Standard tests in International Enocyclopedica of Pharmacology and Therapeutics, Section 19, vol 1: Anticonvulsant Drugs, 1972). […] No sedative effect could be observed.
STR = strychnine convulsant threshold test

[3] = test system: convulsions induced by electrical stimulation (maximal electroshock); test: Maximal electroshock test (MES), 50 mA electrical stimulation; type: in vivo, mice; conditions: Mus musculus, ip, read-out: Anticonvulsive activity ED50, MES
Description: as §1
MES = maximal electroshock test

[4] = test system: arrhythmia in guinea-pigs after infusion of ouabain; test: Ouabain-induced arrhythmia in guinea-pigs; conditions: for Ouabain dose ± SE, inducing arrhythmia / Ouabain dose ± SE, inducing asystole: ouabain 20 μg/kg/min.
Description: Arrhythmia was induced by K^+ deficiency and by aconitine. […] Besides the above-described in vitro tests, an in vivo method was used: the antiarrhythmic effect of the compounds was studied in quineapigs with ouabain-induced arrhythmia.

[5] = test system: convulsions induced by pentylene tetrazole; test: Metrazole (pentylene tetrazole) convulsant threshold test (MET); type: in vivo, mice; conditions: Mus musculus, ip, read-out: Anticonvulsive activity ED50, MET
Description: as §1
MET = metrazole (= pentylene tetrazole) convulsant threshold test.

[6] = test system: hexobarbiturate-induced sleep in mice; test: Hexobarbiturate-induced sleep; type: in vivo
[7] = test system: convulsions induced by pentylene tetrazole, strychnine or electrical stimulation; test: Anticonvulsive effect in three types of experimental epilepsy; type: in vivo, mice; conditions: in words
Description: as §1

[8] = test system: arrhythmia; test: Antiarrhythmic effect (general statement); conditions: in words
Description: Isolated perfused rat heart, prepared after the method of Langendorff, and isolated spontaneously beating rat atria (W. C. Holland & J. H. Burn, J. Brit. Med., vol 1, 1031, 1958) were used for studies of the antiarrhythmic effect of the compounds. Arrhythmia was induced by K^+ deficiency and by aconitine. […] Besides the above-described in vitro tests, an in vivo method was used: the antiarrhythmic effect of the compounds was studied in quineapigs with ouabain-induced arrhythmia.

[9] = injectable forms; cited from earlier work
[10] = mice, intraperitoneal; cited from earlier work
[11] = test system: epileptic patients; conditions: cited from earlier work
[12] = test system: experimental epilepsy; conditions: several types of experimental epilepsy; cited from earlier work
[13] = mice, maximal electroshock test
[14] = O-value (initial), group dosed 12 mg/kg iv
[15] = mice, metrazole convulsant threshold test
[16] = O-value (initial), group dosed 3 mg/kg iv
[17] = O-value (initial), group dosed 6 mg/kg iv

SMILES | ED50 [2] [mg/kg] | ED50 [3, 13] [mg/kg] | ED50 [5, 15] [mg/kg] | HR ± SE, 5 min. after adm. of test compound ([4]; 3 mg/kg iv) [beats/min.] | Ouabain dose ± SE, inducing arrhythmia ([4]; 3 mg/kg iv) [mg/kg] | Ouabain dose ± SE, inducing asystole ([4]; 3 mg/kg iv) [mg/kg] | HR ± SE, 5 min. after adm. of test compound ([4]; 6 mg/kg iv) [beats/min.] | Ouabain dose ± SE, inducing arrhythmia ([4]; 6 mg/kg iv) [mg/kg] | Ouabain dose ± SE, inducing asystole ([4]; 6 mg/kg iv) [mg/kg] | HR ± SE, O-value [4, 16] [beats/min.] | HR ± SE, O-value [4, 17] [beats/min.] | also measured
NS(=O)(=O)CCN1C(=O)c2ccccc2C1=O [2-Phthalimidoethanesulfone amide, 2-phthalimidoethane sulfonamide] | 93 | 122 | > 300 | – | – | – | – | – | – | – | – | Antibacterial properties [1]: did not come up to expectations; HR ± SE, 5 min. after adm. of test compound ([4]; 12 mg/kg iv): 330 beats/min.; Ouabain dose ± SE, inducing arrhythmia ([4]; 12 mg/kg iv): 0.17 mg/kg; Ouabain dose ± SE, inducing asystole ([4]; 12 mg/kg iv): 0.22 mg/kg; HR ± SE, O-value [4, 14]: 333 beats/min.
CN(C)S(=O)(=O)CCN1C(=O)c2ccccc2C1=O [2-Phthalimidoethanesulfone dimethylamide, 2-phthalimidoethanesulfone dimethylamide] | 234 | 113 | 231 | – | – | – | – | – | – | – | – | Antibacterial properties [1]: did not come up to expectations
CCNS(=O)(=O)CCN1C(=O)c2ccccc2C1=O [2-Phthalimidoethanesulfone ethylamide] | 126 | 103 | 138 | 332 ± 16 | 0.175 ± 0.005 | 0.318 ± 0.022 | 270 | 0.15 | 0.36 | 332 ± 22 | 285 | –
CC(C)NS(=O)(=O)CCN1C(=O)c2ccccc2C1=O [2-Phthalimidoethanesulfone isopropylamide] | 227 | – | – | 312 ± 27 | 0.197 ± 0.032 | 0.297 ± 0.027 | 291 | 0.155 | 0.29 | 321 ± 39 | 303 | ED50 [3]: 130 mg/kg; ED50 [5]: > 300 mg/kg
CNS(=O)(=O)CCN1C(=O)c2ccccc2C1=O [2-Phthalimidoethanesulfone methylamide] | 189 | 112 | 170 | – | – | – | 255 ± 51 | 0.188 ± 0.017 | 0.345 ± 0.02 | – | 261 ± 45 | HR ± SE, 5 min. after adm. of test compound ([4]; 12 mg/kg iv): 399 ± 22 beats/min.; Ouabain dose ± SE, inducing arrhythmia ([4]; 12 mg/kg iv): 0.195 ± 0.015 mg/kg; Ouabain dose ± SE, inducing asystole ([4]; 12 mg/kg iv): 0.265 ± 0.05 mg/kg; HR ± SE, O-value [4, 14]: 369 ± 30 beats/min.
CCCCNS(=O)(=O)CCN1C(=O)c2ccccc2C1=O [2-Phthalimidoethanesulfone n-butylamide] | – | 219 | > 300 | 213 | 0.175 | 0.34 | 256 ± 43 | 0.2 ± 0 | 0.382 ± 0.037 | 210 | 256 ± 19 | –
CCCNS(=O)(=O)CCN1C(=O)c2ccccc2C1=O [2-Phthalimidoethanesulfone n-propylamide] | > 300 | 252 | > 300 | 294 ± 45 | 0.16 ± 0.01 | 0.322 ± 0.062 | – | – | – | 286 ± 55 | – | HR ± SE, 5 min. after adm. of test compound ([4]; 2 mg/kg iv): 243 ± 18 beats/min.; Ouabain dose ± SE, inducing arrhythmia ([4]; 2 mg/kg iv): 0.165 ± 0.01 mg/kg; Ouabain dose ± SE, inducing asystole ([4]; 2 mg/kg iv): 0.272 ± 0.027 mg/kg; HR ± SE, O-value ([4]; O-value (initial), group dosed 2 mg/kg iv): 229 ± 34 beats/min.
O=C1c2ccccc2C(=O)N1CCS(=O)(=O)N1CCCC1 [2-Phthalimidoethanesulfone pyrrolidide] | – | > 300 | > 300 | – | – | – | – | – | – | – | – | –
CC(C)(C)NS(=O)(=O)CCN1C(=O)c2ccccc2C1=O [2-Phthalimidoethanesulfone tert-butylamide] | – | > 300 | > 300 | – | – | – | – | – | – | – | – | –
CC(=O)NS(=O)(=O)CCN1C(=O)c2ccccc2C1=O [2-Phthalimidoethanesulfonyl acetamide, 2-phthalimidoethanesulfonyl acetamide] | – | > 300 | > 300 | 259 ± 10 | 0.215 ± 0.024 | 0.355 ± 0.02 | 334 ± 11 | 0.212 ± 0.016 | 0.345 ± 0.026 | 260 ± 9 | 329 ± 15 | Prolongation of hexobarbiturate-induced sleep [6]: did not prolong the time of sleep; Anticonvulsive effect [7]: no anticonvulsive effect; HR ± SE, 5 min. after adm. of test compound ([4]; 1 mg/kg iv): 316 ± 10 beats/min.; Ouabain dose ± SE, inducing arrhythmia ([4]; 1 mg/kg iv): 0.185 ± 0.005 mg/kg; Ouabain dose ± SE, inducing asystole ([4]; 1 mg/kg iv): 0.307 ± 0.002 mg/kg; HR ± SE, 5 min. after adm. of test compound ([4]; 12 mg/kg iv): 349 ± 19 beats/min.; Ouabain dose ± SE, inducing arrhythmia ([4]; 12 mg/kg iv): 0.21 ± 0.016 mg/kg; Ouabain dose ± SE, inducing asystole ([4]; 12 mg/kg iv): 0.36 ± 0.013 mg/kg; HR ± SE, O-value ([4]; O-value (initial), group dosed 1 mg/kg iv): 292 ± 1 beats/min.; HR ± SE, O-value [4, 14]: 329 ± 19 beats/min.; Antiarrhythmic effect [8]: had an antiarrhythmic
CC(=O)NCCS(=O)(=O)O [N-acetyl taurine] | – | – | – | – | – | – | – | – | – | – | – | Penetration of the blood-brain barrier [9]: penetrate the bloodbrain barrier
CC(C)(C)C(=O)NCCS(=O)(=O)O [N-pivaloyl taurine] | – | – | – | – | – | – | – | – | – | – | – | Penetration of the blood-brain barrier [10]: penetrated the blood-brain barrier
CC(C)NCC(O)COc1cccc2ccccc12 (stereo not drawn) [Propranolol, reference compound] | – | – | – | – | 0.295 ± 0.035 | 0.435 ± 0.024 | – | 0.269 ± 0.039 | 0.418 ± 0.034 | – | – | Ouabain dose ± SE, inducing arrhythmia ([4]; 1 mg/kg iv): 0.24 ± 0.005 mg/kg; Ouabain dose ± SE, inducing asystole ([4]; 1 mg/kg iv): 0.363 ± 0.011 mg/kg; HR ± SE, O-value ([4]; guinea pig, in vivo, iv, 1 mg/kg): 280 ± 17 beats/min.; HR ± SE, O-value ([4]; guinea pig, in vivo, iv, 3 mg/kg): 293 ± 17 beats/min.; HR ± SE, O-value ([4]; guinea pig, in vivo, iv, 6 mg/kg): 301 ± 10 beats/min.; Bradycardia ([4]; guinea-pigs): caused bradycardia
NCCS(=O)(=O)O [Taurine, 2-aminoethanesulfonic acid] | – | – | – | – | – | – | – | – | – | – | – | Antiepileptic action [11]: antiepileptic action; Direct central anticonvulsive effect [12]: direct central anticonvulsive effect
